# Laboratory results from patent US10183063B2, “Injection composition comprising hyaluronidase for removal of topical fat” (priority 2016, dated 2019).
# Key:
# topical fat = assay type: in vivo, human
# From the text: In order to find the optimal doses of hyaluronidase facilitating lipolysis, the present inventor conducted experiments with hyaluronidase unit doses of 10 IU, 50 IU, 100 IU, 150 IU, 200 IU, 250 IU, 300 IU, 350 IU, 400 IU, 450 IU, 500 IU, 550 IU, 600 IU, 650 IU, 700 IU, 750 IU, 800 IU, 850 IU, 900 IU, 950 IU, 1000 IU, 1050 IU, 1100 IU, 1150 IU, 1200 IU, 1250 IU, 1300 IU, 1350 IU, 1400 IU, 1450 IU, and 1500 IU.
# It was shown in clinical trials that at the above dose range, if the injection composition is administered in a volume of 1 cc containing 300 IU of hyaluronidase, the diameter of the diffusion range is about 1 cm. Thus, with the hyaluronidase dose set at 300 IU to 600 IU, by injecting the composition at a volume of 0.5 to 2 cc depending on the hyaluronidase dose and at injection points with an interval of 0.5 to 1.5 cm between the injection points, injection at narrow intervals is possible and consequently, lipolysis occurs evenly. Furthermore, a lifting effect occurs concomitantly where skin resilience is improved by the promotion of collagen production through stimulation of the skin by the injection needle.
# Thus, by administering an injection composition of the present invention having the above compositional ranges, the side effects from using the drugs are minimized and fat removal over a wide area can be carried out using a minimal volume.
# It was shown in clinical trials that at a hyaluronidase of 300 IU, the diameter of the diffusion range for the injection composition is about 1 cm. Thus, by injecting the composition at narrow intervals between injection points of 0.5 to 2 cm, even fat removal as well as collagen production by skin stimulation can be facilitated.
Compound,"time until the onset of action for the local anesthetic effect, later compared to lidocaine",Lipolysis (topical fat; unit dose 300 IU or below),Fat removal (topical fat; unit dose above 600 IU),Fat removal effect and side effects (topical fat; unit dose of 300 IU to 600 IU),minimum amount of hyaluronidase exhibiting efficacy (topical fat; unit dose per injection)
CCN(CC)CCOC(=O)c1ccc(N)cc1 [procaine],more than 10 minutes,–,–,–,–
hyaluronidase,–,sufficient lipolysis did not occur,excellent effects were obtained in terms of fat removal,possible to ensure the fat removal effect while minimizing side effects,300 IU
